Experimental data: patent US20160137990A1, “CRYSTAL STRUCTURE OF BLOOD COAGULATION FACTOR XIIIA” (ZEDIRA GMBH, priority 2012, published 2016)
Counter-ions that a name gives are not always drawn. Starred links: 1 amine or outer side, 2 acyl side, 3 side chain; linkers in the order of their positions; H or OH if unused. Non-standard residues stand in square brackets, D forms with d. Residues, ends and D or L forms follow the SMILES beside them. ξ: configuration not given here. X1 = COC(=O)/C=C/CC[C@H](N[*:1])C(=O)[*:2]; Pro(4-oxo) = O=C1CN[C@H](C(=O)O)C1; Ile(3ξ) = CCC(C)[C@H](N)C(=O)O; Nle = CCCC[C@H](N)C(=O)O

Molecular target: T1, Factor XIIIa (Homo sapiens, UniProt P00488)
T1 construct: purchased Zedira T027 or T007
T1 sequence (P00488 39-732 limits assumed): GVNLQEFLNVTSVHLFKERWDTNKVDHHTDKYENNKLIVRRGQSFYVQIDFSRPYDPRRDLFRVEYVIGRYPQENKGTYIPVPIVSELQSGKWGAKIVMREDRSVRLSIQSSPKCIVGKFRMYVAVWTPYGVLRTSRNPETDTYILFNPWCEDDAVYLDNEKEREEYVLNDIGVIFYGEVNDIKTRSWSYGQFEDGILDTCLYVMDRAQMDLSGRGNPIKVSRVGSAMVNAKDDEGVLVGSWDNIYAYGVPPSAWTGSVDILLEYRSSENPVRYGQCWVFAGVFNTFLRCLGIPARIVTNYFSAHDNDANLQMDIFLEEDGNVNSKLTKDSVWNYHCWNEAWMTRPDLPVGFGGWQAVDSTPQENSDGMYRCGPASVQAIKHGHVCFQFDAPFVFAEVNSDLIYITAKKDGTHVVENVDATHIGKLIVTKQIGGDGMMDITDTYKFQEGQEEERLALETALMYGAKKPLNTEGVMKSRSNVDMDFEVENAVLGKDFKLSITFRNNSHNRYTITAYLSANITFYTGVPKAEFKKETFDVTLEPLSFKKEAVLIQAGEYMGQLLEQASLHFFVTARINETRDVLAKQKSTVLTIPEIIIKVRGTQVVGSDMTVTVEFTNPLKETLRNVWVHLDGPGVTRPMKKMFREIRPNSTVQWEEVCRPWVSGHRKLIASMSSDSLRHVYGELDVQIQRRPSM
Experiment: Fluorogenic assay kit F001 (Zedira), isopeptidase activity of FXIIIa
Type: biochemical
Settings: FXIIIa after activation by thrombin; fluorescence ex 313 nm / em 418 nm
Procedure: Kinetic data of the inhibitor 1 (compound 4) and inhibitor 2 (compound 7) using the commercial fluorogenic assay kit F001 (Zedira) show an IC50 of about 0.11 and 0.08 μM respectively. The fluorogenic assay kit F001 (Zedira) is ready to use. Briefly, recombinant factor XIII (Zedira, product number T027) or human blood derived factor XIII (T007) is reconstituted in water. The enzymatic activity is measured in a suitable buffer (e.g. TRIS buffer pH 7.5 containing calcium chloride, sodium chloride, poly ethylene glycol (PEG), glycine methyl ester, clot inhibitor peptide GPRP-amide) after activation by thrombin. Factor XIIIa cleaves a dark quenching molecule from the side chain of the modified peptide incorporating glycine methyl ester (so called iso-peptidase activity). Subsequently, the fluorescence of an N-terminal coupled dye increases and can be monitored on-line (excitation wavelength 313 nm; emission wavelength 418 nm). The inhibitor of interest can be added after the activation of Factor XIII by thrombin is completed. The IC50 value represents the inhibitor concentration leading to a 50% inhibition of FXIIIa activity.

Row | IC50 | Structure (SMILES)
1 | ~0.11 µM | CCCC[C@H](NC(=O)[C@H](CC/C=C/C(=O)OC)NC(=O)[C@@H](CC(=O)O)NC(C)=O)C(=O)N[C@@H](CCCC)C(=O)N[C@@H](CC(C)C)C(=O)N1CCC[C@H]1C(=O)N[C@@H](Cc1c[nH]c2ccccc12)C(=O)N1CCC[C@H]1C(=O)O [compound 4, (S)-1-((S)-2-((S)-1-((4R,7S,10S,13S,16S)-10,13-dibutyl-4-(carboxymethyl)-7-((E)-5-methoxy-5-oxopent-3-enyl)-18-methyl-2,5,8,11,14-pentaoxo-3,6,9,12,15-pentaazanonadecanecarbonyl)pyrrolidine-2-carboxamido)-3-(1H-indol-3-yl)propanoyl)pyrrolidine-2-carboxylic acid] (Ac-[dD][X1][Nle][Nle]LPWP-OH)
2 | ~0.08 µM | CCCC[C@H](NC(=O)[C@H](CC/C=C/C(=O)OC)NC(=O)[C@@H]1CC(=O)CN1)C(=O)N[C@H](C(=O)N[C@@H](CC(C)C)C(=O)N1CCC[C@H]1C(=O)N[C@@H](Cc1c[nH]c2ccccc12)C(=O)N1CCC[C@H]1C(=O)O)C(C)CC (stereo partly drawn) [compound 7, (S)-1-((S)-2-((S)-1-((8S,11S,14S,17S,E)-14-sec-butyl-11-butyl-17-isobutyl-3,9,12,15-tetraoxo-8-((S)-4-oxopyrrolidine-2-carboxamido)-2-oxa-10,13,16-triazaoctadec-4-ene)pyrrolidine-2-carboxamido)-3-(1H-indol-3-yl)propanoyl)pyrrolidine-2-carboxylic acid trifluoroacetate] (H-[Pro(4-oxo)][X1][Nle][Ile(3ξ)]LPWP-OH)
